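A five-concentration, 48-hour dose response in 96-well plates underlies each endpoint, interpolated linearly between surrounding concentrations. Here, GI50 denotes the concentration required for 50% inhibition of growth. TGI denotes the concentration required for complete inhibition of growth.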
What was measured:
Assay in all cases: NCI-60 cell line screen, 48 h
SNB-19 CNS = system: SNB-19 CNS
NCI-H226 lung = system: NCI-H226 lung
MALME-3M melanoma = system: MALME-3M melanoma
RPMI-8226 leukemia = system: RPMI-8226 leukemia
NCI-H460 lung = system: NCI-H460 lung
HS 578T breast = system: HS 578T breast
BT-549 breast = system: BT-549 breast
K-562 leukemia = system: K-562 leukemia
SNB-75 CNS = system: SNB-75 CNS
MDA-MB-231 breast = system: MDA-MB-231 breast
M14 melanoma = system: M14 melanoma
HCC-2998 colon = system: HCC-2998 colon
MOLT-4 leukemia = system: MOLT-4 leukemia
MDA-MB-468 breast = system: MDA-MB-468 breast
OVCAR-5 ovarian = system: OVCAR-5 ovarian
SF-295 CNS = system: SF-295 CNS
HL-60(TB) leukemia = system: HL-60(TB) leukemia
HCT-15 colon = system: HCT-15 colon
KM12 colon = system: KM12 colon
U251 CNS = system: U251 CNS
UACC-257 melanoma = system: UACC-257 melanoma
UACC-62 melanoma = system: UACC-62 melanoma
SN12C renal = system: SN12C renal
MCF7 breast = system: MCF7 breast
TK-10 renal = system: TK-10 renal
DU-145 prostate = system: DU-145 prostate
OVCAR-4 ovarian = system: OVCAR-4 ovarian
LOX IMVI melanoma = system: LOX IMVI melanoma
SK-MEL-5 melanoma = system: SK-MEL-5 melanoma
786-0 renal = system: 786-0 renal
HOP-62 NSCLC = system: HOP-62 NSCLC
ACHN renal = system: ACHN renal
A549 NSCLC = system: A549 NSCLC
SR leukemia = system: SR leukemia
HOP-92 NSCLC = system: HOP-92 NSCLC
A498 renal = system: A498 renal
T-47D breast = system: T-47D breast
OVCAR-8 ovarian = system: OVCAR-8 ovarian
UO-31 renal = system: UO-31 renal
MDA-MB-435 = system: MDA-MB-435
SF-539 CNS = system: SF-539 CNS
HCT-116 colon = system: HCT-116 colon
NCI-H522 lung = system: NCI-H522 lung
CCRF-CEM leukemia = system: CCRF-CEM leukemia
EKVX NSCLC = system: EKVX NSCLC
SK-MEL-2 melanoma = system: SK-MEL-2 melanoma
PC-3 prostate = system: PC-3 prostate
IGROV1 ovarian = system: IGROV1 ovarian
SK-OV-3 ovarian = system: SK-OV-3 ovarian
NCI/ADR-RES ovarian = system: NCI/ADR-RES ovarian
RXF 393 renal = system: RXF 393 renal
COLO 205 colon = system: COLO 205 colon
CAKI-1 renal = system: CAKI-1 renal
OVCAR-3 ovarian = system: OVCAR-3 ovarian
SW-620 colon = system: SW-620 colon
HT29 colon = system: HT29 colon
SF-268 CNS = system: SF-268 CNS
NCI-H23 lung = system: NCI-H23 lung
SK-MEL-28 melanoma = system: SK-MEL-28 melanoma

NS(=O)(=O)c1ccc(N=Nc2c(O)n(CC(=O)Nc3ccccc3Cl)c3ccccc23)cc1
GI50 (SNB-19 CNS): 4.74 µM
TGI (SNB-19 CNS): 24.7 µM
GI50 (NCI-H226 lung): 2500 nM
TGI (NCI-H226 lung): 8.45 µM
GI50 (MALME-3M melanoma): 1890 nM
TGI (MALME-3M melanoma): 6.91 µM
GI50 (RPMI-8226 leukemia): 3.06 µM
TGI (RPMI-8226 leukemia): > 100 µM
GI50 (NCI-H460 lung): 3.1 µM
TGI (NCI-H460 lung): 10.8 µM
GI50 (HS 578T breast): 3.23 µM
TGI (HS 578T breast): > 100 µM
GI50 (BT-549 breast): 2260 nM
TGI (BT-549 breast): 6.79 µM
GI50 (K-562 leukemia): 3.66 µM
TGI (K-562 leukemia): > 100 µM
GI50 (SNB-75 CNS): 2010 nM
TGI (SNB-75 CNS): 14.4 µM
GI50 (MDA-MB-231 breast): 3.34 µM
TGI (MDA-MB-231 breast): 16 µM
GI50 (M14 melanoma): 3.33 µM
TGI (M14 melanoma): 30.5 µM
GI50 (HCC-2998 colon): 2380 nM
TGI (HCC-2998 colon): 6.35 µM
GI50 (MOLT-4 leukemia): 3.19 µM
TGI (MOLT-4 leukemia): 31.8 µM
GI50 (MDA-MB-468 breast): 1810 nM
TGI (MDA-MB-468 breast): 3.8 µM
GI50 (OVCAR-5 ovarian): 4.3 µM
TGI (OVCAR-5 ovarian): 22.7 µM
GI50 (SF-295 CNS): 1670 nM
TGI (SF-295 CNS): 3.58 µM
GI50 (HL-60(TB) leukemia): 2380 nM
TGI (HL-60(TB) leukemia): 7.68 µM
GI50 (HCT-15 colon): 3 µM
TGI (HCT-15 colon): 15.4 µM
GI50 (KM12 colon): 2930 nM
TGI (KM12 colon): 12 µM
GI50 (U251 CNS): 2810 nM
TGI (U251 CNS): 9.62 µM
GI50 (UACC-257 melanoma): 2890 nM
TGI (UACC-257 melanoma): 9.83 µM
GI50 (UACC-62 melanoma): 1810 nM
TGI (UACC-62 melanoma): 5.88 µM
GI50 (SN12C renal): 3.03 µM
TGI (SN12C renal): 16.1 µM
GI50 (MCF7 breast): 1940 nM
TGI (MCF7 breast): 4.63 µM
GI50 (TK-10 renal): 10.8 µM
TGI (TK-10 renal): 34.5 µM
GI50 (DU-145 prostate): 5.34 µM
TGI (DU-145 prostate): 23.1 µM
GI50 (OVCAR-4 ovarian): 4.57 µM
TGI (OVCAR-4 ovarian): 55.5 µM
GI50 (LOX IMVI melanoma): 3.28 µM
TGI (LOX IMVI melanoma): 15.1 µM
GI50 (SK-MEL-5 melanoma): 2120 nM
TGI (SK-MEL-5 melanoma): 5.11 µM
GI50 (786-0 renal): 3.26 µM
TGI (786-0 renal): 12 µM
GI50 (HOP-62 NSCLC): 2750 nM
TGI (HOP-62 NSCLC): 12.7 µM
GI50 (ACHN renal): 2210 nM
TGI (ACHN renal): 6.89 µM
GI50 (A549 NSCLC): 2910 nM
TGI (A549 NSCLC): 10.3 µM
GI50 (SR leukemia): 2820 nM
TGI (SR leukemia): > 100 µM
GI50 (HOP-92 NSCLC): 2150 nM
TGI (HOP-92 NSCLC): 6.45 µM
GI50 (A498 renal): 3.64 µM
TGI (A498 renal): 16 µM
GI50 (T-47D breast): 2950 nM
TGI (T-47D breast): 34.5 µM
GI50 (OVCAR-8 ovarian): 2490 nM
TGI (OVCAR-8 ovarian): 6.85 µM
GI50 (UO-31 renal): 1720 nM
TGI (UO-31 renal): 6.81 µM
GI50 (MDA-MB-435): 2610 nM
TGI (MDA-MB-435): 19.4 µM
GI50 (SF-539 CNS): 1700 nM
TGI (SF-539 CNS): 4.17 µM
GI50 (HCT-116 colon): 2940 nM
TGI (HCT-116 colon): 12.4 µM
GI50 (NCI-H522 lung): 2780 nM
TGI (NCI-H522 lung): 15.3 µM
GI50 (CCRF-CEM leukemia): 3.58 µM
TGI (CCRF-CEM leukemia): 23.2 µM
GI50 (EKVX NSCLC): 4.09 µM
TGI (EKVX NSCLC): 36.1 µM
GI50 (SK-MEL-2 melanoma): 3.95 µM
TGI (SK-MEL-2 melanoma): 21.1 µM
GI50 (PC-3 prostate): 2760 nM
TGI (PC-3 prostate): 29.2 µM
GI50 (IGROV1 ovarian): 4.59 µM
TGI (IGROV1 ovarian): 19.1 µM
GI50 (SK-OV-3 ovarian): 2540 nM
TGI (SK-OV-3 ovarian): 8.74 µM
GI50 (NCI/ADR-RES ovarian): 3.93 µM
TGI (NCI/ADR-RES ovarian): 50.3 µM
GI50 (RXF 393 renal): 2140 nM
TGI (RXF 393 renal): 5.74 µM
GI50 (COLO 205 colon): 2050 nM
TGI (COLO 205 colon): 4.14 µM
GI50 (CAKI-1 renal): 1890 nM
TGI (CAKI-1 renal): 8.37 µM
GI50 (OVCAR-3 ovarian): 2560 nM
TGI (OVCAR-3 ovarian): 11.5 µM
GI50 (SW-620 colon): 2930 nM
TGI (SW-620 colon): 10.9 µM
GI50 (HT29 colon): 2040 nM
TGI (HT29 colon): 4.11 µM
GI50 (SF-268 CNS): 3.19 µM
TGI (SF-268 CNS): 21.9 µM
GI50 (NCI-H23 lung): 3.19 µM
TGI (NCI-H23 lung): 12.2 µM
GI50 (SK-MEL-28 melanoma): 2960 nM
TGI (SK-MEL-28 melanoma): 12.5 µM

From PubChem BioAssay (NCI)
